In patent publication US9415047B2, “Use of benzo five-membered nitrogen heterocyclic piperazine or piperidine derivatives” (Liaoning Emmy Biological Pharmaceutical Co., Ltd., priority 2012, dated 2016):
“And” between values parts separate entries of the source, which are not always exact repeats. Equal entries are not always repeated. “Also recorded” adds a separate entry of the source.

Experiments:
[1] = system: AD constricted rabbit aorta; assay: Relaxing effects on vascular smooth muscle constricted by adrenaline hydrochloride (AD) in vitro; conditions: Oryctolagus cuniculus; relaxation of rabbit aorta constricted by adrenaline (10^−5 mol/L); mean±SEM, n=5
In short: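 Rabbit aortic strips in K-H solution precontracted with adrenaline hydrochloride (10^−5 mol/L) after a reproducible second contraction; compounds added cumulatively over ranges from 1×10^−10 up to 1×10^−2 mol/L depending on the compound series. Relaxation expressed as % of maximal relaxation versus −log concentration, mean±SEM, n=5.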

[2] = system: high kalium concentration constricted rabbit aorta; assay: Relaxing effects on vascular smooth muscle constricted by high kalium concentration in vitro; conditions: relaxation of rabbit aorta constricted by high kalium solution (K+ 60 mmol/L), mean±SEM, n=5; for EC50: Oryctolagus cuniculus
In short: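 Rabbit aortic rings pre-challenged with adrenaline (10^−5 mol/L), washed and re-equilibrated 60 min in K-H solution, then constricted with high-K+ solution; compounds added cumulatively over 1×10^−10–1×10^−2 mol/L depending on series. Relaxation expressed as % of maximal relaxation vs −log concentration; mean±SEM, n=5.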

[3] = system: α1 receptor; assay: Antagonism of accumulative constriction of rabbit aorta by noradrenaline (α-receptor agonist)
Description: Then samples were flushed with K-H solution repeatedly, K-H solution was changed for every 20 min, and the samples were balanced for 60 min. After baseline recovered to be stable, doxazosin (10^−7 mol/L) was added, and noradrenaline (NA) (10^−8-6×10^−5 mol/L) was added by using the same method 15 min later.
NA was also added by using the same method 15 min later.

[4] = system: Calcium Channel (Ca^2+); assay: Antagonism of accumulative constriction of rabbit aorta by CaCl2; conditions: calcium free high kalium depolarization
Description: (§4) Rabbits were hit to be dizzy, with thoracic cavity quickly cut open, descending aorta exposed, connective tissues and surrounding fatty tissues (for hydroxytryptamine receptor antagonism test, endothelia should be removed with smooth stainless steel rod) removed, the aorta was cut into 3-5 mm vascular rings which were penetrated together with a steel wire with one end fixed on ventilation hook, another end on pressure tonotransducer. The aorta rings were put into a bath tube with 20 ml of nutritional solution, and the tension changes were recorded by using the recorder. The temperature of bath tube was maintained at 37±0.5° C., and mixed gas (95% O2+5% CO2) was ventilated at a rate of I-2 bubbles/second. The initial load of the sample was 1.5 g, nutritional solution was changed for every 20 min. The sample was balanced for 2 hours, and the experiment would be started when baseline became stable.
After sample tension became stable, calcium K-H solution was used to flush the sample for 3 times, and incubated with calcium free K-H solution for 40 min. Calcium free high kalium solution was added into the sample for depolarization for 20 min, then CaCl2 (10^−6-10^−2 mol/L) was added into bath tube till maximal response was achieved, and then waveform was recorded. Then K-H solution was used to flush the sample repeatedly, the K-H solution was changed for every 20 min, and the sample was balanced for 60 min. […]
After sample tension became stable, calcium K-H solution was used to flush the sample for 3 times, and incubated with calcium free K-H solution for 40 min. Calcium free high kalium solution was added into the sample for depolarization for 20 min, then CaCl2 (10^−6-10^−2 mol/L) was added into bath tube till maximal response was achieved, and then waveform was recorded. […] Calcium free high kalium solution was added into the sample for depolarization for 20 min, then amlodipine (10^−7 mol/L) was added into bath tube, which was incubated for 15 min, then CaCl2 (10^−6-10^−2 mol/L) was added by using the same method till maximal response was achieved, and then waveform was recorded. […]

[5] = Experiment on acute toxicity; conditions: both sexes, Kunming, mouse, in vivo, mice
Description: (§1) Kunming mice (Experimental Animal Center, China Medical University) were used, half male and half female, 18-22 g, brief probability unit method was used to test the acute toxicity of the compound.
(§2) Ten Kunming mice (Experimental Animal Center, China Medical University) were used, half male and half female, 18-22 g, brief probability unit method was used to test the acute toxicity of the compound.

[6] = system: Kunming mice; assay: Experiment on acute toxicity; conditions: mouse, in vivo
Description: as §1, §2

[7] = system: Kunming mice; assay: Marrow micronucleus test on mice; format: in vivo; conditions: for micronuclei cells in 1000 polychromatic erythrocytes: dosed 4 days, test on day 5, II-2 120, II-85 74, cyclophosphane 60 mg/kg/day
Description: Ten Kunming mice (Experimental Animal Center, China Medical University), half male and half female, were used. Compound II-2 was administered via gastric gavage at 120 mg/kg/day, and II-85 was administered to 74 mg/kg/day. The drug was administered for 4 days continuously. Marrow micronucleus test was performed on day 5.
Mice in positive control group were administered cyclophosphane at 60 mg/kg/day. Mice in negative control group were administered normal saline at 0.1 ml/10 g/day. The drug was administered for 4 days continuously. Marrow micronucleus test was performed on day 5.
The mice were killed by snapping neck, and then femur and sternum were excised, with blood and muscles removed, epiphysis cut off. Then marrow from sternum was squeezed to clean glassslide with bovine serum by using a pair of hemostatic forceps, or marrow on femur was flushed directly with bovine serum onto clean glassslide. Then the substance on glassslide were mixed well and smeared. Then the prepared and dried marrow smears were put into staining tank with methanol, fixed for 15 min, picked out to dry in the open air. After marrow smears were dried, it would be stained in freshly prepared Giemsa solution (1 volume of Giemsa stock solution and 9 volumes of pH 6.8 phosphate buffer) for 10 min, staining solution was flushed away with little stream. Then the smear was dried in the open air and observed under a microscope.

[8] = system: SD rats; assay: Effects on blood pressure of SD rats anesthetized with urethane; format: in vivo; conditions: for time until blood pressures recovered to those before drug dosing: anesthetized SD rats; for time until blood pressures recovered to those before drug dosing / hypotensive effects: gastric gavage; for oral absorption: in vivo bulk testing on rats; for hypotensive effects: rats
Description: (§3) Four SD rats were anesthetized with urethane ([…]), after vital signs became stable, blood pressure was measured by common carotid intubation. After blood pressure became stable, compound II-2 was administered at 4.0 mg/kg via gastric gavage, blood pressure changes with time were observed and recorded.
as §3, with “Five” for “Four”, “rats (provided by Experimental Animal Center, China Medical University)” for “rats”, “II-85” for “II-2”, “1.5” for “4.0”

[9] = biological target: 5-HT2A receptor (Oryctolagus cuniculus, UniProt G1SYA7); assay: Antagonism of accumulative constriction of rabbit aorta by 5-HT
5-HT2A receptor, sequence (G1SYA7 1-469): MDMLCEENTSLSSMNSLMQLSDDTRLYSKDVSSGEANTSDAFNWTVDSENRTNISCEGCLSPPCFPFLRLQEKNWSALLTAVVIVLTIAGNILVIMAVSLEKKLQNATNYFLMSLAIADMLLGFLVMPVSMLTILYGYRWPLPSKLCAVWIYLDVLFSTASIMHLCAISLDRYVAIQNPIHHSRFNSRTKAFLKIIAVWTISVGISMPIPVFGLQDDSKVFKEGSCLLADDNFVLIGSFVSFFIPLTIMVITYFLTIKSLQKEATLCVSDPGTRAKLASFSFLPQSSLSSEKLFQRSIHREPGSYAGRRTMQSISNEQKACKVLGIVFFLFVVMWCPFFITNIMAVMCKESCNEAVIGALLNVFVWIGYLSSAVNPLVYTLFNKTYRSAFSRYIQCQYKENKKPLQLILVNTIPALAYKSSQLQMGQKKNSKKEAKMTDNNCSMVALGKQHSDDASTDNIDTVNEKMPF
Description: as §4
After sample tension became stable, a piece of waveform was recorded, 5-HT (10^−7-3×10^−4 mol/L) was added into the bath tube until maximal response, then waveform was recorded. […] 5-HT was also added by using the same method 20 min later. The maximal response was considered 100%, 5-HT constriction percentage was used as Y axis, negative logarithms of different concentrations of 5-HT were used as X axis to draw dose effective curve.
After sample tension became stable, a piece of waveform was recorded, 5-HT (10^−8-10^−3 mol/L) was added into the bath tube until maximal response, then waveform was recorded. […] 5-HT was also added by using the same method 20 min later. The maximal response was considered 100%, 5-HT constriction percentage was used as Y axis, negative logarithms of different concentrations of 5-HT were used as X axis to draw dose effective curve (data were expressed in mean±SEM ( ? ), *P<0.05, **P<0.01, n=7).
After sample tension became stable, a piece of waveform was recorded, 5-HT (10^−8-3×10^−4 mol/L) was added into the bath tube until maximal response, then waveform was recorded. […] 5-HT was also added by using the same method 20 min later. […]

[10] = system: NA constricted rabbit aorta; assay: Relaxing effects on vascular smooth muscle constricted by noradrenaline (NA) in vitro; conditions: relaxation of rabbit aorta constricted by noradrenaline (10^−5 mol/L), mean±SEM, n=5; for EC50: Oryctolagus cuniculus
Description: Adrenaline hydrochloride (AD) (10^−5 mol/L) was added into a bath tube to induce constriction, when maximal constriction was achieved, the sample was completely flushed, K-H solution was changed for every 20 min. Contents in the tube was balanced for 60 min, when baseline recovered to be stable, noradrenaline bitartrate (NA) (10^−5 mol/L) was added to induce constriction. When the later maximal constriction response was basically consistent with the former one, the prepared compound solutions were subsequently added, including compound II-84 to II-123 solutions (1×10^−10-1×10^−2 mol/L), compound II-124 to II-157 solutions (1×10^−10-1×10^−3 mol/L), to record the waveforms. Relaxing percentage of the compound was used as Y axis, maximal relaxation response was 100%, negative logarithm of different concentration was used as X axis, to draw dose effect curve (expressed in mean±SEM ( ? ), n=5).

[11] = system: α1 receptor; assay: Antagonism of accumulative constriction of rabbit aorta by phenylephrine (α-receptor agonist); conditions: agonist (R)-phenylephrine
Description: PE was also added by using the same method 15 min later. […] The curve was shown in FIG. 21 after positive drug doxazosine mesylate (10^−7 mol/L) was added.

[12] = 4.0 mg/kg gastric gavage, 0 min post dosing, n = 4
[13] = 4.0 mg/kg gastric gavage, 15 min post dosing, n = 4
[14] = 4.0 mg/kg gastric gavage, 30 min post dosing, n = 4
[15] = 4.0 mg/kg gastric gavage, 60 min post dosing, n = 4
[16] = 4.0 mg/kg gastric gavage, 90 min post dosing, n = 4
[17] = 4.0 mg/kg gastric gavage, 120 min post dosing, n = 4
[18] = 4.0 mg/kg gastric gavage, 150 min post dosing, n = 4
[19] = 4.0 mg/kg gastric gavage, 180 min post dosing, n = 4
[20] = 4.0 mg/kg gastric gavage, 210 min post dosing, n = 4
[21] = 1.5 mg/kg gastric gavage, 0 min post dosing, n = 5
[22] = 1.5 mg/kg gastric gavage, 15 min post dosing, n = 5
[23] = 1.5 mg/kg gastric gavage, 30 min post dosing, n = 5
[24] = 1.5 mg/kg gastric gavage, 60 min post dosing, n = 5
[25] = 1.5 mg/kg gastric gavage, 90 min post dosing, n = 5
[26] = 1.5 mg/kg gastric gavage, 120 min post dosing, n = 5
[27] = 1.5 mg/kg gastric gavage, 150 min post dosing, n = 5
[28] = 1.5 mg/kg gastric gavage, 180 min post dosing, n = 5
[29] = 1.5 mg/kg gastric gavage, 210 min post dosing, n = 5
[30] = 1.5 mg/kg gastric gavage, 240 min post dosing, n = 5

FC(F)(F)c1cccc(N2CCN(CCCCn3cnc4ccccc43)CC2)c1 [II-2, 1-(4-(4-(3-trifluoromethylphenyl)piperazine-1-yl)butyl)-1H-benzimidazole]
EC50 [1]: 1.86 µM | EC50 [2]: 4.57 µM | PA2 value to resist constriction of rabbit aorta by NA [3]: 7.37±0.08 | PA2 value to resist constriction of rabbit aorta by CaCl2 [4]: 5.61±0.04 | LD50 ([5]; po, gastric gavage): 362 mg/kg | therapeutic index [6]: great therapeutic index | toxicity [6]: mild toxicity | marrow micronucleus test result [7]: negative | micronuclei cells in 1000 polychromatic erythrocytes [7]: 2.0±0.333% | diastolic blood pressure (DBP) [8, 12]: 75.92 mmHg | mean artery pressure (MAP) [8, 12]: 91.50 mmHg | systolic blood pressure (SBP) [8, 12]: 122.66 mmHg | diastolic blood pressure (DBP) [8, 13]: 62.21 mmHg | mean artery pressure (MAP) [8, 13]: 73.40 mmHg | systolic blood pressure (SBP) [8, 13]: 95.77 mmHg | diastolic blood pressure (DBP) [8, 14]: 61.84 mmHg | mean artery pressure (MAP) [8, 14]: 74.52 mmHg | systolic blood pressure (SBP) [8, 14]: 99.88 mmHg | diastolic blood pressure (DBP) [8, 15]: 58.04 mmHg | mean artery pressure (MAP) [8, 15]: 72.77 mmHg | systolic blood pressure (SBP) [8, 15]: 102.22 mmHg | diastolic blood pressure (DBP) [8, 16]: 53.86 mmHg | mean artery pressure (MAP) [8, 16]: 68.81 mmHg | systolic blood pressure (SBP) [8, 16]: 98.71 mmHg | diastolic blood pressure (DBP) [8, 17]: 69.10 mmHg | mean artery pressure (MAP) [8, 17]: 83.12 mmHg | systolic blood pressure (SBP) [8, 17]: 111.16 mmHg | diastolic blood pressure (DBP) [8, 18]: 70.79 mmHg | mean artery pressure (MAP) [8, 18]: 84.47 mmHg | systolic blood pressure (SBP) [8, 18]: 111.82 mmHg | diastolic blood pressure (DBP) [8, 19]: 71.08 mmHg | mean artery pressure (MAP) [8, 19]: 84.83 mmHg | systolic blood pressure (SBP) [8, 19]: 112.34 mmHg | diastolic blood pressure (DBP) [8, 20]: 75.26 mmHg | mean artery pressure (MAP) [8, 20]: 88.54 mmHg | systolic blood pressure (SBP) [8, 20]: 115.12 mmHg | time until blood pressures recovered to those before drug dosing [8]: 3.5 h | oral absorption [8]: good oral absorption | hypotensive effects [8]: good hypotensive effects; also recorded: obvious hypotensive effects | Kb [9]: 1.95 µM

FC(F)(F)c1cccc(N2CCN(CCCCn3nnc4ccccc43)CC2)c1 [II-31, 1-(4-(4-(3-trifluoromethylphenyl)piperazine-1-yl)butyl)-1H-benzotriazole]
EC50 [1]: 0.646 µM | EC50 [2]: 2.82 µM | PA2 value to resist constriction of rabbit aorta by NA [3]: 6.02±0.13 | PA2 value to resist constriction of rabbit aorta by CaCl2 [4]: 6.56±0.032 | Kb [9]: 0.188 µM

Fc1ccc2c(C3CCN(CCCn4nnc5ccccc54)CC3)noc2c1 [II-85, N-(3-(1H-benzotriazole-1-yl)propyl)4-(3-(6-fluorobenzisoxazolyl))piperidine]
EC50 [1]: 0.0501 µM | EC50 [10]: 0.0309 µM | PA2 value to resist constriction of rabbit aorta by PE [11]: 8.62±0.11 | PA2 value to resist constriction of rabbit aorta by CaCl2 [4]: 6.10±0.13 | LD50 ([5]; intraperitoneal, intraabdominal injection): 108 mg/kg | LD50 ([5]; po, gastric gavage): 222 mg/kg | marrow micronucleus test result [7]: negative | micronuclei cells in 1000 polychromatic erythrocytes [7]: 2.5±0.373% | diastolic blood pressure (DBP) [8, 21]: 103.06 mmHg | mean artery pressure (MAP) [8, 21]: 116.63 mmHg | systolic blood pressure (SBP) [8, 21]: 143.77 mmHg | diastolic blood pressure (DBP) [8, 22]: 75.36 mmHg | mean artery pressure (MAP) [8, 22]: 91.98 mmHg | systolic blood pressure (SBP) [8, 22]: 125.22 mmHg | diastolic blood pressure (DBP) [8, 23]: 68.68 mmHg | mean artery pressure (MAP) [8, 23]: 84.42 mmHg | systolic blood pressure (SBP) [8, 23]: 115.90 mmHg | diastolic blood pressure (DBP) [8, 24]: 75.49 mmHg | mean artery pressure (MAP) [8, 24]: 91.24 mmHg | systolic blood pressure (SBP) [8, 24]: 122.75 mmHg | diastolic blood pressure (DBP) [8, 25]: 83.32 mmHg | mean artery pressure (MAP) [8, 25]: 97.37 mmHg | systolic blood pressure (SBP) [8, 25]: 125.48 mmHg | diastolic blood pressure (DBP) [8, 26]: 83.71 mmHg | mean artery pressure (MAP) [8, 26]: 96.77 mmHg | systolic blood pressure (SBP) [8, 26]: 122.89 mmHg | diastolic blood pressure (DBP) [8, 27]: 95.06 mmHg | mean artery pressure (MAP) [8, 27]: 108.73 mmHg | systolic blood pressure (SBP) [8, 27]: 136.08 mmHg | diastolic blood pressure (DBP) [8, 28]: 86.22 mmHg | mean artery pressure (MAP) [8, 28]: 100.11 mmHg | systolic blood pressure (SBP) [8, 28]: 127.90 mmHg | diastolic blood pressure (DBP) [8, 29]: 97.96 mmHg | mean artery pressure (MAP) [8, 29]: 111.02 mmHg | systolic blood pressure (SBP) [8, 29]: 137.13 mmHg | diastolic blood pressure (DBP) [8, 30]: 102.84 mmHg | mean artery pressure (MAP) [8, 30]: 115.95 mmHg | systolic blood pressure (SBP) [8, 30]: 142.19 mmHg | time until blood pressures recovered to those before drug dosing [8]: 6 h | oral absorption [8]: good oral absorption | hypotensive effects [8]: obvious hypotensive effects; also recorded: good hypotensive effects | Kb [9]: 0.000871 µM

COc1ccc2nnn(CCCN3CCC(c4noc5cc(F)ccc45)CC3)c2c1 [II-140, N-(3-(6-methoxyl-1H-benzotriazole-1-yl)propyl)-4-(3-(6-fluorobenzisoxazolyl))piperidine]
EC50 [1]: 5.89 µM | −logEC50 [10]: 5.31 ± 0.05 | −logEC50 [2]: 5.02 ± 0.05

COc1ccc2nnn(OCCN3CCC(c4noc5ccccc45)CC3)c2c1 [II-147, N-(2-(6-methoxylbenzotriazolyl)ethoxyl)-4-(3-benzisoxazolyl)piperidine]
EC50 [1]: 93.3 µM | EC50 [10]: 49 µM | EC50 [2]: 295 µM

c1ccc2c(c1)nnn2OCCN1CCC(c2noc3ccccc23)CC1 [II-148]
EC50 [1]: 55 µM | EC50 [10]: 91.2 µM | EC50 [2]: 55 µM

O=P1(N(CCCl)CCCl)NCCCO1 (stereo not drawn) [cyclophosphane, reference compound]
micronuclei cells in 1000 polychromatic erythrocytes [7]: 12%

COc1cc2nc(N3CCN(C(=O)C4COc5ccccc5O4)CC3)nc(N)c2cc1OC (stereo not drawn) [doxazosin, reference compound]
PA2 value to resist constriction of rabbit aorta by NA [3]: 7.52±0.04 and 7.76±0.24 | PA2 value to resist constriction of rabbit aorta by PE [11]: 7.43±0.12
